Source: US20260374766A1, “METHODS FOR TREATING CANCER” (Antares Therapeutics, Inc., priority 2022, published 2026)

Experiments:
H1299 p53 Y220C = test: Cell Proliferation Assay (CellTiter-Glo, CTG), H1299 p53 Y220C (NClH1299-inducible p53 Y220C); assay type: cell-based; details: Homo sapiens, NCI-H1299, 120 h, CellTiter-Glo, H1299 p53 Y220C, 5 days
Method in brief: (§1)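 Tet-One inducible p53 Y220C or R273H constructs were stably introduced into NCI-H1299 by lentiviral transduction; NUGC3 was used as is. Cells (250-500 per well) were exposed to compound for 5 days, then CellTiter-Glo was added for 10 min at room temperature and IC50 was calculated from luminescence.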

H1299 p53 R273H = test: Cell Proliferation Assay (CellTiter-Glo, CTG), H1299 p53 R273H (NClH1299-inducible p53 R273H); assay type: cell-based; details: Homo sapiens, NCI-H1299, 120 h, CellTiter-Glo, H1299 p53 R273H, 5 days
Method in brief: as §1

NUGC3 p53 Y220C = test: Cell Proliferation Assay (CellTiter-Glo, CTG), NUGC3 p53 Y220C; assay type: cell-based; details: Homo sapiens, NUGC-3, 120 h, CellTiter-Glo, NUGC3 p53 Y220C, 5 days
Method in brief: as §1

p53 Y220C = p53 Y220C (Homo sapiens, UniProt P04637, Y220C); test: Luciferase Reporter Assay (Luc), p53 response element, NClH1299 cells with inducible p53 Y220C; assay type: cell-based; details: luciferase reporter, NClH1299 inducible p53 Y220C, 6 hour; for Emax: 10 uM tool compound as positive control; for AC50: read-out: Luc P53 Y220C AC50
Method in brief: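 Cells were seeded at 5,000 per well and induced with 0.5 ug/mL doxycycline for 24 hours, then exposed to compound for 6 hours. One-Glo reagent was added, plates shaken 5 minutes at room temperature, and luminescence read immediately.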

[1] = target: T1, p53 Y220C mutant protein (amino acid residues 94-293) (Homo sapiens, UniProt P04637, Y220C); test: Thermal Shift Assay (TSA), dTM; assay type: binding; details: thermal shift; for ΔTm at 10 µM: 10 uM compound, read-out: TSA P53 Y220C dTM (10 uM); for ΔTm at 100 µM: 100 uM compound, read-out: TSA P53 Y220C dTM (100 uM)
T1 construct: p53 Y220C mutant protein (amino acid residues 94-293)
Method in brief: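 Sypro Orange melt (30→50 °C, 0.03 °C/s) with TM taken from a Boltzmann two-state fit. Protein (residues 94-293) at 5 μM was pre-incubated 3 h at 20 °C with compound at 10 μM or 100 μM in pH 7.4 HEPES/NaCl buffer containing 0.01% Pluronic F-127 and 1% DMSO.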

[2] = target: T1, p53 Y220C mutant protein (amino acid residues 94-293); test: Surface Plasmon Resonance (SPR) assay, Kd_kinetic; assay type: binding; details: SPR, kinetic KD, p53 Y220C; read-out: SPR P53 Y220C KD kinetic
Method in brief: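 Kinetic dissociation constants derived by 1:1 model fit of SPR data acquired at 16 or 20 °C, pH 7.5 Tris/NaCl running buffer with 1% DMSO.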

SMILES | IC50 (H1299 p53 Y220C) | IC50 (H1299 p53 R273H) | Emax (p53 Y220C) | AC50 (p53 Y220C) | ΔTm at 10 µM [1] | ΔTm at 100 µM [1] | Kd [2] | IC50 (NUGC3 p53 Y220C)
CNC(=O)c1ccc(NCC#Cc2nc3c(NC4CC5(C4)CN(CC(F)F)C5)cccn3c2SC(F)(F)F)c(OC)c1 [Example 173] | 750 to 1500 nM | 5000 to 8000 nM | 70 to 80% | 750 to 1500 nM | 5 to 10 °C | 5 to 10 °C | 10 to 100 nM | 1500 to 3000 nM
CNC(=O)c1ccc(NCC#Cc2nc3c(N[C@H]4CCNC(=O)C4)cccn3c2SC(F)(F)F)c(OC)c1 [Example 174] | 1500 to 3000 nM | ≥ 10000 nM | 80 to 90% | 1500 to 3000 nM | ≥ 10 °C | ≥ 10 °C | < 10 nM | 750 to 1500 nM
CNC(=O)c1ccc(NCC#Cc2nc3c(N[C@@H]4CCNC(=O)C4)cccn3c2SC(F)(F)F)c(OC)c1 [Example 175] | > 3000 nM | ≥ 10000 nM | < 70% | > 3000 nM | 5 to 10 °C | 5 to 10 °C | 10 to 100 nM | > 3000 nM
CNC(=O)c1ccc(NCC#Cc2nc3c(N[C@@H]4CCn5cncc5C4)cccn3c2SC(F)(F)F)c(OC)c1 [Example 176] | 750 to 1500 nM | 5000 to 8000 nM | 70 to 80% | 750 to 1500 nM | 5 to 10 °C | ≥ 10 °C | 10 to 100 nM | 1500 to 3000 nM
CNC(=O)c1ccc(NCC#Cc2nc3c(N[C@H]4CCn5cncc5C4)cccn3c2SC(F)(F)F)c(OC)c1 [Example 177] | < 750 nM | 5000 to 8000 nM | 80 to 90% | < 750 nM | ≥ 10 °C | ≥ 10 °C | < 10 nM | 750 to 1500 nM
CNC(=O)c1ccc(NCC#Cc2nc3c(N[C@H]4CCn5nccc5C4)cccn3c2SC(F)(F)F)c(OC)c1 [Example 178] | 750 to 1500 nM | 5000 to 8000 nM | < 70% | 1500 to 3000 nM | 5 to 10 °C | 5 to 10 °C | 10 to 100 nM | 750 to 1500 nM
CNC(=O)c1ccc(NCC#Cc2nc3c(N[C@@H]4CCn5nccc5C4)cccn3c2SC(F)(F)F)c(OC)c1 [Example 179] | 1500 to 3000 nM | ≥ 10000 nM | < 70% | 1500 to 3000 nM | 5 to 10 °C | 5 to 10 °C | 10 to 100 nM | 1500 to 3000 nM
CNC(=O)c1ccc(NCC#Cc2nc3c(N[C@@H]4CCC(=O)NC4)cccn3c2SC(F)(F)F)c(OC)c1 [Example 182] | 1500 to 3000 nM | ≥ 10000 nM | 80 to 90% | 1500 to 3000 nM | 5 to 10 °C | 5 to 10 °C | 10 to 100 nM | 1500 to 3000 nM
CNC(=O)c1ccc(NCC#Cc2nc3c(N[C@H]4CCC(=O)NC4)cccn3c2SC(F)(F)F)c(OC)c1 [Example 183] | 1500 to 3000 nM | ≥ 10000 nM | 80 to 90% | 1500 to 3000 nM | 5 to 10 °C | 5 to 10 °C | 10 to 100 nM | 750 to 1500 nM
CNC(=O)c1cc(NCC#Cc2cc3c(N[C@@H]4CCN(C)C[C@@H]4F)nccn3c2SC(F)(F)F)c2nccn2c1 [Example 186, 8-{[3-(1-{[(3S,4R)-3-fluoro-1-methylpiperidin-4-yl]amino}-6-[(trifluoromethyl)sulfanyl]pyrrolo[1,2-a]pyrazin-7-yl)prop-2-yn-1-yl]amino}-N-methylimidazo[1,2-a]pyridine-6-carboxamide] | < 750 nM | ≥ 10000 nM | > 90% | < 750 nM | ≥ 10 °C | – | < 10 nM | < 750 nM
CNC(=O)c1ccc(NCC#Cc2nc3c(N[C@H]4CCc5nncn5C4)cccn3c2SC(F)(F)F)c(OC)c1 [Example 191] | > 3000 nM | ≥ 10000 nM | < 70% | > 3000 nM | 5 to 10 °C | ≥ 10 °C | < 10 nM | > 3000 nM
CNC(=O)c1ccc(NCC#Cc2nc3c(N[C@@H]4CCc5nncn5C4)cccn3c2SC(F)(F)F)c(OC)c1 [Example 192] | > 3000 nM | ≥ 10000 nM | < 70% | > 3000 nM | ≥ 10 °C | ≥ 10 °C | < 10 nM | > 3000 nM
CNC(=O)c1ccc(OC)c(NCC#Cc2nn3c(N[C@@H]4CCN(C)C[C@@H]4F)cccc3c2SC(F)F)c1 [Example 194] | < 750 nM | 5000 to 8000 nM | > 90% | < 750 nM | ≥ 10 °C | 5 to 10 °C | < 10 nM | < 750 nM
CNC(=O)c1ccc(OC)c(NCC#Cc2nn3c(N[C@@H]4CCNC[C@@H]4F)cccc3c2SC(F)F)c1 [Example 195] | < 750 nM | 5000 to 8000 nM | 80 to 90% | < 750 nM | ≥ 10 °C | ≥ 10 °C | < 10 nM | < 750 nM

More lines, main results first:

IC50 (H1299 p53 Y220C) | IC50 (H1299 p53 R273H) | Emax (p53 Y220C) | AC50 (p53 Y220C) | ΔTm at 10 µM [1] | ΔTm at 100 µM [1] | Kd [2] | SMILES | IC50 (NUGC3 p53 Y220C)
> 3000 nM | ≥ 10000 nM | 70 to 80% | > 3000 nM | 5 to 10 °C | 5 to 10 °C | 10 to 100 nM | CNC(=O)c1ccc(NCC#Cc2nc3c(N[C@@H]4CCN(C)C(=O)C4)cccn3c2SC(F)(F)F)c(OC)c1 [Example 169] | > 3000 nM
< 750 nM | ≥ 10000 nM | 80 to 90% | < 750 nM | ≥ 10 °C | ≥ 10 °C | < 10 nM | CNC(=O)c1cc(NCC#Cc2nc3c(N[C@@H]4CCN(C)C[C@@H]4F)cccn3c2SC(F)(F)F)c(OC)cc1F [Example 170] | < 750 nM
< 750 nM | ≥ 10000 nM | 70 to 80% | < 750 nM | ≥ 10 °C | ≥ 10 °C | < 10 nM | CNC(=O)c1ccc(OC)c(NCC#Cc2nc3c(N[C@@H]4CN(C)C[C@@H]4F)cccn3c2SC(F)(F)F)n1 [Example 171] | < 750 nM
< 750 nM | 5000 to 8000 nM | 70 to 80% | < 750 nM | ≥ 10 °C | ≥ 10 °C | < 10 nM | CNC(=O)c1ccc(OC)c(NCC#Cc2nc3c(N[C@@H]4CNC[C@@H]4F)cccn3c2SC(F)(F)F)n1 [Example 172] | < 750 nM
< 750 nM | 5000 to 8000 nM | 80 to 90% | < 750 nM | ≥ 10 °C | ≥ 10 °C | < 10 nM | CNC(=O)c1ccc(NCC#Cc2nc3c(N[C@@H]4CCN(C)C[C@@H]4F)cc(F)cn3c2SC(F)(F)F)c(OC)c1 [Example 180] | 750 to 1500 nM
750 to 1500 nM | 5000 to 8000 nM | 80 to 90% | 1500 to 3000 nM | 5 to 10 °C | 5 to 10 °C | 10 to 100 nM | CNC(=O)c1ccc(NCC#Cc2nc3c(NCC4(F)CN(C)C4)cccn3c2SC(F)(F)F)c(OC)c1 [Example 181] | 1500 to 3000 nM
1500 to 3000 nM | 5000 to 8000 nM | 70 to 80% | 1500 to 3000 nM | 5 to 10 °C | ≥ 10 °C | < 10 nM | CNC(=O)c1ccc(NCC#Cc2nc3c(N[C@H]4Cc5cncn5C4)cccn3c2SC(F)(F)F)c(OC)c1 [Example 184] | 750 to 1500 nM
< 750 nM | 5000 to 8000 nM | 80 to 90% | < 750 nM | ≥ 10 °C | ≥ 10 °C | < 10 nM | CNC(=O)c1ccc(NCC#Cc2nc3c(N[C@H]4CCC(=O)N(C)C4)cccn3c2SC(F)(F)F)c(OC)c1 [Example 187] | < 750 nM
750 to 1500 nM | ≥ 10000 nM | 80 to 90% | 750 to 1500 nM | 5 to 10 °C | ≥ 10 °C | 10 to 100 nM | CNC(=O)c1ccc(NCC#Cc2nc3c(N[C@@H]4CCC(=O)N(C)C4)cccn3c2SC(F)(F)F)c(OC)c1 [Example 188] | 750 to 1500 nM
< 750 nM | 8000 to 10000 nM | 70 to 80% | < 750 nM | ≥ 10 °C | ≥ 10 °C | 10 to 100 nM | CNC(=O)c1ccc(OC)c(NCC#Cc2nc3c(N[C@@H]4CCNC[C@@H]4F)cccn3c2SC(F)F)n1 [Example 193] | < 750 nM
